Source: patent publication US11260129B2, “Phosphor-containing drug activator, suspension thereof, system containing the suspension, and methods for use” (IMMUNOLIGHT, LLC, priority 2016, dated 2022)

Tests used:
4T1-HER2 cells [1] = experiment: Cell viability by Guava flow cytometry (FIG. 13A); assay type: cell-based, murine; conditions: UVADEX alone, 1 Gy 80 kVp; p=0.97
Procedure: In-vitro studies were conducted on plated cells following standard procedures. Cells were maintained in RPMI-1640 supplemented with 10% fetal bovine serum and L-glutamine from GIBCO (Grand Island, N.Y.) growing in a humidified atmosphere of 5% CO2. After incubation, cells were trypsinized and plated evenly onto twelve 12-well plates for 24 hours. About 20 minutes prior to irradiation, the 12 wells of each plate were exposed to the following combinations of additives: […] Each plate had 12 wells with three wells for each of the four treatment arms. The plates were then irradiated with x-rays by placing the plate at a known distance from the x-ray source (50 cm). After irradiation, the cells were incubated on the plate for 48 hours prior to performing flow cytometry. For compatibility with 96-well Guava Nexin® assay, the remaining cells were again trypsinized. […] Two primary flow cytometry analyses were used, both determined at 48 hours after treatment. […] The first analysis evaluated was metabolic cell viability (herein referred to as cell viability) calculated from the number of whole cells per well as determined using forward scattering (ESC). […] In FIG. 13A, cell viability after treatment (10 μM 8-MOP equivalent dilution of UVADEX, 50 μg/mL phosphor, 1 Gy of 80 kVp radiation) as determined by Guava flow cytome cytometry is depicted. […]

4T1-HER2 cells [2] = experiment: Annexin V positivity by flow cytometry (FIGS. 13B, 15, 16); assay type: cell-based, murine; conditions: UVADEX alone, with or without x-ray (p 0.90 and 0.09)
Procedure: In-vitro studies were conducted on plated cells following standard procedures. Cells were maintained in RPMI-1640 supplemented with 10% fetal bovine serum and L-glutamine from GIBCO (Grand Island, N.Y.) growing in a humidified atmosphere of 5% CO2. After incubation, cells were trypsinized and plated evenly onto twelve 12-well plates for 24 hours. About 20 minutes prior to irradiation, the 12 wells of each plate were exposed to the following combinations of additives: […] Each plate had 12 wells with three wells for each of the four treatment arms. The plates were then irradiated with x-rays by placing the plate at a known distance from the x-ray source (50 cm). After irradiation, the cells were incubated on the plate for 48 hours prior to performing flow cytometry. […] (after the 48 hour incubation) and plated onto the 96-well plate, Two primary flow cytometry analyses were used, both determined at 48 hours after treatment. […] The first analysis evaluated was metabolic cell viability (herein referred to as cell viability) calculated from the number of whole cells per well as determined using forward scattering (ESC). […] In FIG. 13A, cell viability after treatment (10 μM 8-MOP equivalent dilution of UVADEX, 50 μg/mL phosphor, 1 Gy of 80 kVp radiation) as determined by Guava flow cytome cytometry is depicted. […]

4T1-HER2 cells [3] = experiment: Methylene blue staining for cell viability; assay type: cell-based, murine; conditions: individual components, 1 Gy of 80 kVp x-rays
Procedure: A plate having six (6) wells is subjected to treatment. FIG. 11 is a photographic depiction showing of Methylene Blue stain for cell viability post treatment with X-ray, phosphors and UVADEX. One well (#1) is the control. One well (#2) has phosphor coated with EC and DLC (H100). One well (#3) has phosphor coated with EC (but no DLC).
FIGS. 13A-13D illustrates the efficacy of treatment in-vitro in 4T1-HER2 cells, utilizing a regimen of 1/10-diluted UVADEX (with equivalent of 10 uM 8-MOP), 50 μg/mL phosphor 1 Gy of 80 kVp x-rays. […] Two results from two separate plates are shown, each with identical preparations to investigate reproducibility. Three concentrations of phosphor (25, 50, & 100 μg/mL) were tested with the UVADEX concentration fixed at 1/10 dilution (10 uM 8-MOP). […] In FIGS. 13A-13D, the anti-tumor effects of the treatment and its individual components on 4T1-HER2 cells. […] In FIGS. 13C and 13D, cell viability illustrated by methyl blue staining for identical plates each receiving 1 Gy of 80 kVp x-rays is depicted. […]

[4] = test system: CT2A (murine malignant glioma); experiment: Cell-Titer-Glo Luminescence Cell Viability Assay, UV activated psoralen (FIG. 14A); assay type: cell-based; conditions: psoralen 40 μM; UV light 0, 0.25, 0.5, 1.0 J/cm2; N=4
Text: (§1) Other assays were used to provide independent complimentary information on cell viability, e.g. Methylene blue staining and ATP-induced Luminescence imaging (Cell-Titer-Glo® Luminescence Cell Viability Assay). The luminescence imaging permitted investigation of the cytotoxicity of psoralen activated directly with a UV lamp, and in the absence of phosphors and x-ray radiation.
(§2) FIG. 14B presents data on CT2A malignant glioma cells, for a range of treatment parameters including variable x-ray dose (0, 0.67 and 1 Gy). phosphor concentration (50 or 100 μg) and psoralen concentration (8-MOP) at 10, 20 and 40 μM respectively. […] N=4 for each cell line at each UV light condition (0, 0.25, 0.5, 1.0 J/cm2). The psoralen concentration was 40 μM. For FIG. 14B, in CT2A cells, the treatment cytotoxicity increases with X-ray dose (0, 0.67 and 1.00 Gy respectively), concentration of 8-MOP psoralen (10, 20 and 40 μM respectively), and phosphor (50 and 100 μg/ml) respectively (p values shown thereon).

4T1 = experiment: as above; assay type: cell-based, murine; conditions: psoralen 40 μM; UV light 0, 0.25, 0.5, 1.0 J/cm2; N=4
Text: as §1, §2

KP-B (sarcoma) = experiment: as above; assay type: cell-based, murine; conditions: psoralen 40 μM; UV light 0, 0.25, 0.5, 1.0 J/cm2; N=4
Text: as §1, §2

Structure (SMILES)	effect of addition of radiation on cell viability (4T1-HER2 cells [1])	apoptotic activity (Annexin V) (4T1-HER2 cells [2])	effect in methyl blue staining (FIGS. 13C, 13D) (4T1-HER2 cells [3])	viable cells [4]	viable cells (4T1)	viable cells (KP-B (sarcoma))
COc1c2occc2cc2ccc(=O)oc12 [UVADEX, 8-methoxypsoralen]	no significant effect	negligible apoptotic activity	little effect	–	–	–
O=c1ccc2cc3ccoc3cc2o1 [psoralen]	–	–	–	reduce viable cells	reduce viable cells	reduce viable cells
